Data reported in patent US20210231678A1, “ALLERGY ANTIGEN AND EPITOPE THEREOF” (FUJITA ACADEMY, priority 2020, published 2021).
Blank lines part the entries; values can stand above or below the substance they belong to.

What was measured:
[1] = tested on: IgE antibody present in the serum of a patient (latex-allergic); experiment: Latex epitope mapping (2) overlapping 10-residue peptides and (3) alanine/glycine scanning on peptide arrays; assay type: binding, human; conditions: for confirmed as epitope binding to IgE antibodies: short partial sequences of the 15-residue epitopes
Method: On the basis of the sequences (SEQ ID NOs: 5, 25, 35, 68 and 83) of the peptides bound to an IgE antibody in serum in a patient-specific manner as described above in (A), a library of overlapping peptide fragments (length: 10 amino acids) was prepared using the sequences of the peptides and sequences in which sequences were added so as to flank each peptide in the amino acid sequences of allergy components comprising the sequences of the peptide. Epitope mapping was carried out using the library.
The peptides to be synthesized were shifted by one amino acid.
The library was prepared by the same procedure as described above in (A), and the presence or absence of binding of an IgE antibody present in the serum of a patient to each peptide fragment was measured by the same technique as described above. Numeric values determined from images obtained as a result of carrying out only the procedures (1) and (4) to (6) described above in the subsection titled (3) Spotting of cellulose-bound peptide solution were used as control values. The control value of each peptide was subtracted from numeric values determined from images obtained from results about the serum of patients, and the obtained value of the difference was compared with values of the peptides serving as the basis of overlapping.
Chemiluminescence intensity in images obtained by measurement was converted into a numeric value in the same manner as in (A). Numeric values determined from images obtained as a result of carrying out only the procedures (1) and (4) to (6) described above in the subsection titled (3) Spotting of cellulose-bound peptide solution (secondary antibody measurement values) were used as control values. The control value of each peptide was subtracted from numeric values determined from images obtained from results about the serum of patients. When values obtained using the sequences (SEQ ID NOs: 5, 25, 35, 68 and 83) serving as the basis of overlapping were defined as 100%, it was determined that: a peptide having a value of the difference that was less than 30% had no binding activity against IgE antibodies; a peptide having a value of the difference that was 30% or more and less than 50% had binding activity, albeit poor, against IgE antibodies; a peptide having a value of the difference that was 50% or more and less than 70% had binding activity, albeit somewhat poor, against IgE antibodies; and a peptide having a value of the difference that was 70% or more had equivalent or good binding activity against IgE antibodies and was thus a peptide had remaining binding activity against IgE antibodies.
From the amino acid sequences identified above in (A), a library of peptide fragments in which amino-terminal amino acids were substituted one by one by alanine (or glycine when the original amino acid was alanine) according to a technique called alanine/glycine scanning (Non Patent Literature 5) was prepared by the same technique as described above. The presence or absence of binding of an IgE antibody present in the serum of a patient to each peptide fragment was measured by the same technique as described above.
Chemiluminescence intensity in images obtained by measurement was converted into a numeric value in the same manner as in (A). Numeric values determined from images obtained from secondary antibody measurement values were used as control values. The control value of each peptide was subtracted from numeric values determined from images obtained from results about the serum of 17 patients (patient Nos. P1-P17). […]

[2] = tested on: IgE antibody present in the serum of a latex-allergic patient; experiment: Latex epitope mapping (1): array of overlapping 15-amino-acid peptides; assay type: binding, human; conditions: 15-residue peptides; serum of 17 latex-allergic patients; chemiluminescence difference from N2nd value of at least 35,000 = bound
Method: Epitope mapping was carried out using a library of overlapping peptides (length: 15 amino acids) corresponding to the amino acid sequences identified as allergy components of latex. Specifically, the library of overlapping peptides was prepared on the basis of the amino acid sequences of SEQ ID NOs: 2 and 4.
The peptides to be synthesized were shifted by 10 amino acids.
For preparation of peptide arrays, the Intavis CelluSpots™ technique was used. Specifically, the peptide arrays were prepared by the following procedure: (1) synthesizing peptides of interest on amino-modified cellulose disks using an automated chemical synthesis apparatus (Intavis MultiPep RS), (2) dissolving the amino-modified cellulose disks to obtain a cellulose-bound peptide solution, and (3) spotting the cellulose-bound peptides onto coated glass slides. The details of each procedure are as described below.
The presence or absence of binding, to each peptide fragment, of an IgE antibody present in the serum of a latex-allergic patient was measured through antigen-antibody reaction using the peptide arrays. The measurement was carried out according to the following procedure.
(1) The peptides were shaken at room temperature for 1 hour in Pierce Protein-Free (PBS) Blocking Buffer (produced by Thermo Fisher Scientific). (2) The peptide arrays were shaken at overnight at 4° C. in 2% serum/Pierce Protein-Free (PBS) Blocking Buffer (produced by Thermo Fisher Scientific). (3) The peptide arrays were washed with PBST (a PBS buffer containing […] Tween 20 nonionic surfactant) for 5 minutes (×3). (4) Anti-human IgE antibody-HRP (1:20,000, Pierce Protein-Free (PBS) Blocking Buffer (produced by Thermo Fisher Scientific)) was added thereto, and the peptide arrays were shaken at room temperature for 1 hour. (5) The peptide arrays were washed with PBST for 5 minutes (×3). (6) Pierce ECL Plus Western Blotting Substrate (produced by Thermo Fisher Scientific) was added thereto, and the peptide arrays were shaken at room temperature for 5 minutes. (7) The chemiluminescence of the peptides treated as described above in (1) to (6) was measured using Amersham Imager 600.
Chemiluminescence intensity in images obtained by the measurement described above in (7) was converted into a numeric value using ImageQuant TL (GE Healthcare). The second highest value among numeric values determined from images obtained from results about the serum of 4 non-latex-allergic subjects was defined as the N2nd value. The N2nd value of each peptide was subtracted from numeric values determined from images obtained from results about the serum of 17 patients (17 latex-allergic patients; respectively given patient Nos. P1-P17). It was determined that a peptide having a value of at least 35,000 as the difference was a peptide bound to an IgE antibody in a patient-specific manner.

[3] = serum of latex-allergic patient P12
[4] = serum of latex-allergic patient P17

Substance: DLKSYKSNSVATDIY (epitope) [SEQ ID NO: 35]
- patient-specific binding of IgE antibody to peptide [2]: confirmed to bind

Substance: KPLN (epitope) [SEQ ID NO: 30]
- confirmed as epitope binding to IgE antibodies [1]: confirmed as epitopes binding to IgE antibodies

Substance: KPYDKPLNDRYSYKN (epitope) [SEQ ID NO: 25]
- patient-specific binding of IgE antibody to peptide [2]: confirmed to bind

Substance: KVGK (epitope) [SEQ ID NO: 78]
- confirmed as epitope binding to IgE antibodies [1]: confirmed as epitopes binding to IgE antibodies

Substance: PLTEDNFVIQKPYDK (epitope) [SEQ ID NO: 5]
- patient-specific binding of IgE antibody to peptide [2]: confirmed to bind

Substance: QKPY (epitope) [SEQ ID NO: 6]
- confirmed as epitope binding to IgE antibodies [1]: confirmed as epitopes binding to IgE antibodies

Substance: VNVIHKVGKGEITVF (epitope) [SEQ ID NO: 68]
- patient-specific binding of IgE antibody to peptide [2]: confirmed to bind

Substance: WSKFYDDKNGYSSSI (epitope) [SEQ ID NO: 83]
- patient-specific binding of IgE antibody to peptide [2]: confirmed to bind

Second part, the substance after the results:

- epitope sequence grade for binding to IgE antibody ([1]; serum of latex-allergic patient P7): Preferably
Substance: 110 (YDDKNGYSSS; epitope) [compound 110]

- epitope sequence grade for binding to IgE antibody [1, 3]: More preferably
Substance: 112 (WSKFYDDKNG; epitope) [compound 112]

- epitope sequence grade for binding to IgE antibody [1, 3]: Preferably
Substance: 113 (WSKFYDDKN; epitope) [compound 113]

- epitope sequence grade for binding to IgE antibody [1, 3]: Key
Substance: 114 (KFYDDK; epitope) [compound 114]

- epitope sequence grade for binding to IgE antibody [1, 4]: More preferably
Substance: 115 (WSKFYDDKN; epitope) [compound 115]

- epitope sequence grade for binding to IgE antibody [1, 4]: Preferably
Substance: 116 (WSKFYD; epitope) [compound 116]

- epitope sequence grade for binding to IgE antibody [1, 4]: Key
Substance: 117 (SKFYD; epitope) [compound 117]

- epitope sequence grade for binding to IgE antibody [1, 4]: Preferably
Substance: 118 (YDDKNGYSSS; epitope) [compound 118]

- epitope sequence grade for binding to IgE antibody [1, 4]: Key
Substance: 119 (DKNGYSSS; epitope) [compound 119]
